Measurements as given in patent publication US8614236B2 (University of Washington, priority 2006, dated 2013).
Entries after “also recorded” stand apart in the source; their conditions may differ. Each block holds one molecule with its values, some of them ahead of it. Bridge positions count the residues as written; N and C are the ends. Ends that are not written are not given here.

How the values were obtained:
carbonic anhydrase = test: Carbonic anhydrase inhibition; format: biochemical
Source text: Benzolamide (BZ) was obtained from Dr. Thomas H. Maren, University of Florida Department of Pharmacology.

PASMCs [1] = test: Hypoxia-induced increase in [Ca2+]i in PASMCs (4% O2); format: cell-based, rat
Method: (§1) Intrapulmonary arteries (200-600 μm o.d.) were isolated from male Wistar rats (250-350 g) and cleaned of connective tissue. After the lumen was gently rubbed with a cotton swab to remove the endothelial cells, the arteries were allowed to recover for 30 minutes in cold (4° C.) HBSS containing (in mM): 130 NaCl, 5 KCl, 1.2 MgCl2, 1.5 CaCl2, 10 N-[2-hydroxyethyl]piperazine-N′-[2-ethanesulfonic acid] (HEPES) and 10 glucose, with pH adjusted to 7.2 with 5 M NaOH, followed by 20 minutes in reduced-Ca^2+ (20 μM CaCl2) HBSS at room temperature. […] Following digestion, single smooth muscle cells were dispersed by gentle trituration with a wide-bore transfer pipette in Ca^2+-free HBSS and the cell suspension was placed on 25 mm glass cover slips. PASMCs were transiently cultured in Ham's-F-12 media supplemented with 0.5% fetal bovine serum and 1% penicillin/streptomycin for 24-48 hrs. before study.
(§2) Acute hypoxia increases intracellular [Ca^2+] in pulmonary arterial smooth muscle by enhancing capacitative Ca^2+ entry. […] Ratiometric measurement of fluorescence from the dye was performed on a workstation (Intracellular Imaging Inc, Cincinnati, Ohio) consisting of a Nikon TSE 100 Ellipse inverted microscope with epi-fluorescence attachments. The light beam from a xenon arc lamp was filtered at 340 and 380 nm, and focused onto the PASMCS under examination via a 20× fluorescence objective (Super Fluor 20, Nikon). Light emitted from the cell at 510 nm was returned through the objective and detected by a cooled CCD imaging camera. An electronic shutter (Sutter Instruments) was used to minimize photobleaching of dye. Protocols were executed and data collected on-line with InCyte software (Intracellular Imaging Inc). [Ca^2+]i was estimated from in vitro calibration solutions.

PASMCs [2] = test: Intracellular pH (pHi) in PASMCs (BCECF-AM); format: cell-based, rat
Method: (§3) The method for obtaining single PASMCs has been described previously in Shimoda L. A., et al., Am J Physiol 274: 842-853 (1998), which is hereby incorporated by reference in its entirety. Intrapulmonary arteries (200-600 μm o.d.) were isolated from male Wistar rats (250-350 g) and cleaned of connective tissue. After the lumen was gently rubbed with a cotton swab to remove the endothelial cells, the arteries were allowed to recover for 30 minutes in cold (4° C.) HBSS containing (in mM): 130 NaCl, 5 KCl, 1.2 MgCl2, 1.5 CaCl2, 10 N-[2-hydroxyethyl]piperazine-N′-[2-ethanesulfonic acid] (HEPES) and 10 glucose, with pH adjusted to 7.2 with 5 M NaOH, followed by 20 minutes in reduced-Ca^2+ (20 μM CaCl2) HBSS at room temperature. The tissue was enzymatically digested in reduced-Ca^2+ HBSS containing collagenase (type I; 1750 U/ml), papain (9.5 U/ml), bovine serum albumin (2 mg/ml) and dithiothreitol (1 mM) at 37° C. for 20 minutes. Following digestion, single smooth muscle cells were dispersed by gentle trituration with a wide-bore transfer pipette in Ca^2+-free HBSS and the cell suspension was placed on 25 mm glass cover slips. PASMCs were transiently cultured in Ham's-F-12 media supplemented with 0.5% fetal bovine serum and 1% penicillin/streptomycin for 24-48 hrs. before study.
pHi within PASMCs was monitored using the cell permeant pH sensitive dye 2′,7′-bis(carboxyethyl)-5(6)-carboxyflourescein (BCECF-AM). Cells were incubated with BCECF-AM for 60 min at 37° C. under an atmosphere of 21% O2-5% CO2. Cells were then washed with Kreb's solution for 15 min at 37° C. to remove extracellular dye and allow complete de-esterification of cytosolic dye. Cells were excited with light at 490 and 440 nm and light emitted from the cells was detected at 530 nm. The ratio of 490 to 440 nm emission was calculated and converted into pH values by performing a calibration curve after each experiment. PASMCs were subjected to a high K^+ buffer containing 10 μM nigericin, which allowed the cell to adopt the pH of the high K^+ buffer. Two high K^+/nigericin buffers were used to set pH to 6.5 or 7.5, pHi was estimated from in situ calibration after each experiment. Cells were perfused with a solution containing (in mM): 105 KCl, 1 MgCl2, 1.5 CaCl2, 10 glucose, 20 HEPES-Tris and 0.01 nigericin to allow pHi to equilibrate to external pH as in Quinn D. A., et al., Am J Respir Cell Mol Biol 5: 586-591 (1991), which is hereby incorporated by reference in its entirety. A two point calibration was created from fluorescence measured as pHi was adjusted with KOH from 6.5 to 7.5. Intracellular H^+ ion concentration ([H^+]i) was determined from pHi using the formula: pHi=−log ([H^+]i).

PASMCs [3] = test: KCl-induced Ca2+ responses in PASMCs; format: cell-based, rat; details: 100 μM
Method: as §1, §2

PASMCs [4] = test: Basal intracellular Ca2+ concentration in PASMCs (Fura-2); format: cell-based, rat
Method: as §1, §2

PASMCs [5] = test: Changes in membrane potential (Em) in PASMCs, DiBAC4(3) fluorescence; format: cell-based, rat; details: agent alone; for increase in DiBAC4(3) fluorescence: KCl 60 mM, ET-1 10^−8 M
Method: as §3
Changes in membrane potential were measured using the fluorescence dye, DiBAC4(3), which was excited at 490 nm and detected at 510 nm. Cells were loaded by continuous perfusion with Kreb's solution containing 500 nM DiBAC4(3) and were perfused for at least 15 minutes before beginning measurements to insure stable uptake of dye. Baseline DiBAC4(3) fluorescence was monitored for 5 minutes with control Kreb's, followed by 10 minutes with Kreb's in the presence or absence of AZ (100 μM). At the end of this period, cells were challenged with KCl (60 mM) or endothelin-1 (ET-1) (10^−8 M). Since DiBAC4(3) is a single wavelength dye, any change in the concentration of the dye in the perfusion medium (i.e., differing concentrations between perfusion reservoirs) could result in a change in fluorescence that is not due to a change in membrane potential. To minimize the possibility of this type of error, all experiments were performed using inflow from a single reservoir into which AZ, KCl or ET-1 were dissolved directly.
AZ has recently been proposed to alter the activation of Ca^2+-activated K^+ channels, causing hyperpolarization. See Pickkers P., et al., Br J Pharmacol 132: 443-450 (2001); Tricarico D., et al., Ann Neurol 48: 304-312 (2000); and Tricarico D., et al., Faseb J 18: 760-761 (2004), which are hereby incorporated by reference in their entirety. Since depolarization is believed to contribute to the hypoxia-induced increase in [Ca^2+]i, AZ-induced hyperpolarization could prevent activation of voltage-gated Ca^2+ channels and an increase in [Ca^2+]i in response to hypoxia. In order to test this possibility, the Em-sensitive fluorescent dye, DiBAC4(3) was used. […] Baseline fluorescence was relatively stable over time, decreasing by 4.11±0.4% over 10 minutes (n=90 cells).

CA inhibiting action (carbonic anhydrase): no CA inhibiting action
Molecule: CNS(=O)(=O)c1nnc(NC(C)=O)s1 [N-Meth-AZ]
increase in [Ca^2+]i induced by hypoxia (PASMCs [1]; 100 μM, control 141.1±32.2 nM): 33.2 ± 17.4 nM | effect on hypoxia-induced increase in [Ca^2+]i (PASMCs [1]; 10-100 μM): markedly reduced; also recorded: prevented | basal pHi, Treatment (PASMCs [2]; 100 μM): 7.12±0.01 | effect on basal pHi (PASMCs [2]; 100 μM): no significant effect; also recorded: minimal effect | basal pHi, Baseline (PASMCs [2]; before the compound): 7.13±0.02 | effect on KCl-induced increase in [Ca^2+]i (PASMCs [3]): similar | basal [Ca^2+]i, Treatment (PASMCs [4]; 100 μM, after 10 min of perfusion): 200.9 ± 11.3 nM | basal [Ca^2+]i, Baseline (PASMCs [4]; before perfusion with the compound): 193.4 ± 11.0 nM

Molecule: endothelin-1 (CSCSSLMDKECVYFCHLDIIW; disulfide 1-15, 3-11; ends not checked; UniProt P05305 53-73, looked up) [ET-1]
increase in DiBAC4(3) fluorescence (PASMCs [5]): 75.6±13.4%

Molecule: CC(N/C(=N\C#N)Nc1ccncc1)C(C)(C)C (stereo not drawn) [pinacidil]
decrease in DiBAC4(3) fluorescence (PASMCs [5]; 100 μM): 19.76±3.3%

Molecule: [Cl-].[K+] [KCl]
increase in DiBAC4(3) fluorescence (PASMCs [5]): 61.58±12.8%
